Reference: US12497365B2, “4-pyridinyl formamide compound or derivative thereof, preparation method therefor, herbicidal composition and use thereof” (Qingdao Kingagroot Chemical Compound Co., Ltd., priority 2019, dated 2025)

Legend:
Assay in all cases: Weeding effect in post-emergence stage
Format in all cases: in vivo
Settings in all cases: active ingredient 2000 g/ha, 3 weeks after application, fresh weight control rate
[1] = system: Abutilon theophrasti
Method in brief: (§1)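 Pot-grown weeds at the 2-3 leaf stage receive a tower spray of test compound at 2000, 1000, 500, 250 or 125 g/ha, formulated in acetone with Tween 80 and methyl oleate synergist. Fresh weight reduction is rated on an activity scale 3 weeks later.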

[2] = system: Amaranthus retroflexus L.
Method in brief: as §1

[3] = system: Chenopodium album
Method in brief: as §1

[4] = system: Descurainia sophia
Method in brief: as §1

| Structure (SMILES) | Weeding effect, activity level (growth control rate), Abutilon theophrasti [1] | Weeding effect, activity level (growth control rate), Amaranthus retroflexus L. [2] | Weeding effect, activity level (growth control rate), Chenopodium album [3] | Weeding effect, activity level (growth control rate), Descurainia sophia [4] |
| --- | --- | --- | --- | --- |
| O=C(Nc1nnc(C2CC2)o1)c1ccnc(-c2ccc(F)cc2)c1Cl [Compound 1-1257] | 5 (Level 5: growth control rate is above 85%) | 5 (Level 5: growth control rate is above 85%) | 5 (Level 5: growth control rate is above 85%) | 5 (Level 5: growth control rate is above 85%) |
| O=C(Nc1ccon1)c1ccnc(-c2ccc(F)cc2)c1Cl [Compound 1-1286] | 5 (Level 5: growth control rate is above 85%) | 5 (Level 5: growth control rate is above 85%) | 5 (Level 5: growth control rate is above 85%) | 5 (Level 5: growth control rate is above 85%) |
| Cc1conc1NC(=O)c1ccnc(-c2ccc(F)cc2)c1Cl [Compound 1-1577] | 5 (Level 5: growth control rate is above 85%) | 5 (Level 5: growth control rate is above 85%) | 5 (Level 5: growth control rate is above 85%) | 5 (Level 5: growth control rate is above 85%) |
| O=C(Nc1ncco1)c1ccnc(-c2ccc(F)cc2)c1Cl [Compound 1-1607] | 5 (Level 5: growth control rate is above 85%) | 5 (Level 5: growth control rate is above 85%) | 5 (Level 5: growth control rate is above 85%) | 5 (Level 5: growth control rate is above 85%) |
| C=Cc1ccc(-c2nccc(C(=O)Nc3nnnn3C)c2Cl)cc1 [Compound 1-1918] | 5 (Level 5: growth control rate is above 85%) | 5 (Level 5: growth control rate is above 85%) | 5 (Level 5: growth control rate is above 85%) | 5 (Level 5: growth control rate is above 85%) |
| CN(C)C(=O)c1ccc(-c2nccc(C(=O)Nc3nnnn3C)c2Cl)cc1 [Compound 1-1925] | 5 (Level 5: growth control rate is above 85%) | 5 (Level 5: growth control rate is above 85%) | 5 (Level 5: growth control rate is above 85%) | 5 (Level 5: growth control rate is above 85%) |
| Cn1nnnc1NC(=O)c1ccnc(-c2cccc3c2OC(F)(F)O3)c1Cl [Compound 1-1972] | 5 (Level 5: growth control rate is above 85%) | 5 (Level 5: growth control rate is above 85%) | 5 (Level 5: growth control rate is above 85%) | 5 (Level 5: growth control rate is above 85%) |
| Cn1nnnc1NC(=O)c1ccnc(-c2ccc(CNC(=O)OC(C)(C)C)s2)c1Cl [Compound 1-2004] | 5 (Level 5: growth control rate is above 85%) | 5 (Level 5: growth control rate is above 85%) | 5 (Level 5: growth control rate is above 85%) | 5 (Level 5: growth control rate is above 85%) |
| Cn1nnnc1NC(=O)c1ccnc(-c2ccc[nH]2)c1Cl [Compound 1-2006] | 5 (Level 5: growth control rate is above 85%) | 5 (Level 5: growth control rate is above 85%) | 5 (Level 5: growth control rate is above 85%) | 5 (Level 5: growth control rate is above 85%) |
| Cn1nnnc1NC(=O)c1ccnc(-c2cc3ccccc3o2)c1Cl [Compound 1-2010] | 5 (Level 5: growth control rate is above 85%) | 5 (Level 5: growth control rate is above 85%) | 5 (Level 5: growth control rate is above 85%) | 5 (Level 5: growth control rate is above 85%) |
| Cn1nnnc1NC(=O)c1ccnc(-c2ccc(C#N)cc2)c1F [Compound 1-2016] | 5 (Level 5: growth control rate is above 85%) | 5 (Level 5: growth control rate is above 85%) | 5 (Level 5: growth control rate is above 85%) | 5 (Level 5: growth control rate is above 85%) |
| COc1c(C(=O)Nc2nnnn2C)ccnc1-c1ccc(C#N)cc1 [Compound 1-2029] | 5 (Level 5: growth control rate is above 85%) | 5 (Level 5: growth control rate is above 85%) | 5 (Level 5: growth control rate is above 85%) | 5 (Level 5: growth control rate is above 85%) |
| CN(C)c1c(C(=O)Nc2nnnn2C)ccnc1-c1ccc(Cl)cc1 [Compound 1-2044] | 5 (Level 5: growth control rate is above 85%) | 5 (Level 5: growth control rate is above 85%) | 5 (Level 5: growth control rate is above 85%) | 5 (Level 5: growth control rate is above 85%) |
| CSc1c(C(=O)Nc2nnnn2C)ccnc1-c1ccc(C#N)cc1 [Compound 1-2052] | 5 (Level 5: growth control rate is above 85%) | 5 (Level 5: growth control rate is above 85%) | 5 (Level 5: growth control rate is above 85%) | 5 (Level 5: growth control rate is above 85%) |
| CSc1c(C(=O)Nc2nnnn2C)ccnc1-c1ccc(C(N)=O)cc1 [Compound 1-2053] | 5 (Level 5: growth control rate is above 85%) | 5 (Level 5: growth control rate is above 85%) | 5 (Level 5: growth control rate is above 85%) | 5 (Level 5: growth control rate is above 85%) |
| COc1nccc(C(=O)Nc2nnnn2C)c1Cl [Compound 1-2061] | 5 (Level 5: growth control rate is above 85%) | 5 (Level 5: growth control rate is above 85%) | 5 (Level 5: growth control rate is above 85%) | 5 (Level 5: growth control rate is above 85%) |
